Tests used:
presenilin/γ-secretase [1] = biological target: T1, presenilin/γ-secretase (Homo sapiens, UniProt P49768); assay: Pulse-chase experiment: secretion of F-Nβ from K293 cells expressing F-NEXTΔC or F-NEXT; format: cell-based; conditions: 1 μM, pretreating for 2 hours (FIG. 4D)
T1 construct: A crude purified membrane fraction of K293 cells co-expressing F-NEXTΔC and swβAPP; endogenous in cells; host or cells: K293 (human embryonic kidney 293) cells co-expressing F-NEXTΔC and swβAPP; crude membrane fraction (CMF)
Method: In order to determine whether an N terminal fragment (NTF: F-Nβ) was released from the cells which had expressed F-NEXTΔC or F-NEXT as a result of proteolysis by presenilin/γ-secretase, the cells (K293 cells) which had stably expressed F-NEXTΔC or F-NEXT were cultured in a 10 cm dish up to a confluent phase. The cells were cultured in DMEM solution deprived of methionine (obtained by modifying a commercially available one from Gibco) for 45 minutes to be starved with methionine. Subsequently, the medium was replaced with the same DMEM solution deprived of methionine, and simultaneously the cells were metabolically pulse-labeled with 300 μCi of [^35S]-methionine/cysteine (Pro-mix, Amersham) for 30 minutes. Then the cells were chased in 10% FCS/DMEM for 2 hours.
After termination of a chase period, the medium was collected and immediately placed on ice. Then cell debris was eliminated by centrifuging at 3,000×g. Subsequently, a protease inhibitor cocktail (1:1000, Sigma) and 0.025% sodium azide were added. The sample was immunoprecipitated with 4G8 antibody or anti-FLAG-M2-agarose (Sigma) overnight, and a precipitate was washed three times with RIPA buffer containing 0.1% SDS, 0.5% deoxycholic acid and 1% Triton X-100. Subsequently, SDS-PAGE was performed using 10 to 20% gradient gel of Tris-tricine (Invitrogen). […]

presenilin/γ-secretase [2] = biological target: T1, presenilin/γ-secretase; assay: Multiple substrate cell-free assay system combining βAPP and Notch-1 (IP/MALDI-TOF MS of Aβ, AICD, F-Nβ, NICDΔC); format: biochemical
Method: In the case of cell-free γ-secretase assay, MS washing buffer composed of 4 time amount or more of 0.1% n-octylglucoside, 140 mM NaCl, 10 mM Tris (pH 8.0) and 0.025% sodium azide was added to an S1 or S2 fraction which was the supernatant of ultracentrifugation after the assay. The mixture was immunoprecipitated at 4° C. for 4 hours using 6636, 6618, 4G8 or M2 agarose. After the immunoprecipitation, the precipitate was washed three times at 4° C. for 10 minutes using the MS washing buffer. The precipitate was washed once more with 10 mM Tris (pH 8.0) containing 0.025% sodium azide, and then simply washed once more with water. A peptide bound to the specific antibody in the precipitate consequently obtained was eluted with TFA/acetonitrile/water (TFA: acetonitrile: water=1:20:20) saturated with α-cyano-4-hydroxy cinnamic acid. The solubilized sample was dried on a stainless plate, and analyzed by MALDI-TOF MS. MS peaks were calibrated by angiotensin (Sigma) and insulin β chain (Sigma).
Human embryonic kidney 293 cells (K293 cells) in which F-NEXTΔC and Sweden type mutant βAPP (swβAPP) had been constitutively co-expressed were made by transfecting with the Sweden type mutant βAPP using Lipofectamine 2000 (Invitrogen), selecting by G418 and subsequently, transfecting the cells expressing βAPP with F-NEXTΔC. It was confirmed first that F-NEXTΔC and swβAPP had been expressed in the lysate of this cell, and simultaneously that F-Nβ and Aβ had been released in the culture supernatant (FIG. 5A to 5C). The composition of F-Nβ and Aβ molecular species were examined and it was confirmed that they were not inconsistent with previous reports (results are not shown).
A crude purified membrane fraction of K293 cells co-expressing F-NEXTΔC and swβAPP, pretreated with 100 nM of L685,458 or 100 nM of DAPT for 2 hours before extracting the membrane fraction was used. The S1-40 min fraction was collected from this crude purified membrane fraction. The precipitate fraction after collecting the S1-40 min fraction was resuspended in the reaction buffer, and then sonicated for a short time. Subsequently the fraction was centrifuged at 100,000×g for 15 minutes to collect the supernatant fraction as the S2-40 min fraction.
The fractions were immunoprecipitated with the antibody specific for each fragment (4G8 for Aβ, 6618 for AICD, M2 agarose for F-Nβ and […] for NICDΔC), and analyzed using the MALDI-TOF mass analyzer (FIG. 8). NICDΔC and AICD de novo produced were identified in the S1-40 min fraction. F-Nβ and Aβ were identified in the S2-40 min fraction (FIG. 8). Even when the change was added to the multiple substrate cell-free assay system combining βAPP and Notch-1, the diversity in the proteolytic sites by the presenilin/γsecretase was conserved.
The cells co-expressing F-NEXTΔC and swβAPP were cultured up to the confluent phase, and treated with the γ-secretase inhibitor at each concentration for 3 hours. As the γ-secretase inhibitor, L685,458 which was a transition-state analogue which binds to an active center of the presenilin/γ-secretase and DAPT which was not the transition-state analogue were used. The cells after the treatment were washed twice with ice-cooled PBS to collect. These cells were lysed and homogenated to extract CMF. Subsequently, this membrane fraction was suspended in alkaline washing buffer and left stand at 4° C. for 30 minutes. Then, the resuspension and the centrifugation were repeated three times using the reaction buffer to wash out the alkaline washing buffer. It appears that most γ-secretase inhibitor contained in CMF was washed out until this process. Finally, CMF was suspended once more in the reaction buffer, and the cell-free reaction was performed. The amounts of AICD and NICDΔC in the S1-40 min fraction and the amounts of Aβ and Nβ in the S2-40 min fraction were semi-quantified from relative heights of MALDI-TOF MS peaks, and evaluated by four scales of −, +, ++ and +++.

presenilin/γ-secretase [3] = biological target: T1, presenilin/γ-secretase; assay: as above; format: biochemical; conditions: cells pretreated at 1 μM and further 1 μM added in all buffers including homogenate and reaction buffer
[4] = pretreated at 1 μM, thoroughly washed out

## CC(C)C[C@H](NC(=O)[C@H](Cc1ccccc1)C[C@@H](O)[C@H](Cc1ccccc1)NC(=O)OC(C)(C)C)C(=O)N[C@@H](Cc1ccccc1)C(N)=O [L685,458]
presenilin/γ-secretase [1]
  secretion of F-Nβ: almost completely inhibited
presenilin/γ-secretase [2]
  action on γ49 and corresponding S3 cleavage: less sensitively
  action upon γ40 and corresponding S4 cleavage: acted sensitively
presenilin/γ-secretase [2]; [4]
  Aβ/Nβ, γ cleaved NTF (S4/γ40 cleavage): not observed
  de novo production of AUCD/NICD which was γ cleaved CTF (S3/γ49 cleavage): recognized
presenilin/γ-secretase [2]; pretreated with 10 nM
  peak heights of four fragments: maximum on average
presenilin/γ-secretase [2]; pretreatment concentration decreased to 100 nM and 10 nM
  de novo production of F-Nβ/Aβ: recovered
presenilin/γ-secretase [3]
  production of F-Nβ, Aβ, NICDΔC and AICD (all of four fragments): not observed at all

## wild type PS1 (presenilin), stably expressed in K293 cells
F-NEXT V1744G
  degradation of the F-NEXT derivative during 2 hours' chase: F-NEXT V1744G and F-NEXT V1744L in the background of wild presenilin were degraded and their amounts were decreased during 2 hours' chase as with F-NEXT
F-NEXT V1744L
  degradation of the F-NEXT derivative during 2 hours' chase: F-NEXT V1744G and F-NEXT V1744L in the background of wild presenilin were degraded and their amounts were decreased during 2 hours' chase as with F-NEXT

## PS1 D385N, dominant negative mutant of presenilin, stably expressed in K293 cells
F-NEXT V1744G
  NICD production and decrease of the F-NEXT derivative after 2 hours' chase: not only the NICD production but also the decrease of F-NEXT and its derivatives were not observed after 2 hours' chase
F-NEXT V1744L
  NICD production and decrease of the F-NEXT derivative after 2 hours' chase: not only the NICD production but also the decrease of F-NEXT and its derivatives were not observed after 2 hours' chase
FLAG-NEXT
FLAG-NEXT, sequence (chain, as listed by the source): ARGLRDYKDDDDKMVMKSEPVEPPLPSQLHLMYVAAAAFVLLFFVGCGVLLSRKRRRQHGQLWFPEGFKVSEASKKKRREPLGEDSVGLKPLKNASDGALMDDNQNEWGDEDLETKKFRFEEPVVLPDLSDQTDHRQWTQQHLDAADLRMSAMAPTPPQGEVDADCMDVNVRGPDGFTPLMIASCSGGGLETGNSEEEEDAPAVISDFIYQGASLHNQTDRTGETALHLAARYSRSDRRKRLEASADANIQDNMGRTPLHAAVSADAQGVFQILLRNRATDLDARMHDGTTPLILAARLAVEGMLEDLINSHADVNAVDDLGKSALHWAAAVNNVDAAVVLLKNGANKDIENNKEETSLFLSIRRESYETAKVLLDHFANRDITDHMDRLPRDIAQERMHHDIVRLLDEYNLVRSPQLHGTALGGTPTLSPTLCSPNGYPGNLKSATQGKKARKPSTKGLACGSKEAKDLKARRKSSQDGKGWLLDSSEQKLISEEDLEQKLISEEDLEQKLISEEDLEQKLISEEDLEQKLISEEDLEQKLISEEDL
  NICD production and decrease of F-NEXT after 2 hours' chase: not only the NICD production but also the decrease of F-NEXT and its derivatives were not observed after 2 hours' chase

## C[C@H](NC(=O)Cc1cc(F)cc(F)c1)C(=O)N[C@H](C(=O)OC(C)(C)C)c1ccccc1 [DAPT]
presenilin/γ-secretase [2]
  action on γ49 and corresponding S3 cleavage: less sensitively
  action upon γ40 and corresponding S4 cleavage: acted sensitively
presenilin/γ-secretase [2]; same pretreatment experiment (FIGS. 9A and 9B)
  effects on the four fragments compared with L685,458: extremely similar

From patent US20060275856A1, “Method for analyzing cell free notch cleavage and method for drug screening” (OSAKA INDUSTRIAL PROMOTION ORGANIZATION, priority 2003, published 2006)
